# pIC50: −log10 of the molar value.
# Assays:
# CD45 [1] = target: T1, CD45 (Homo sapiens, UniProt P08575); experiment: Phosphatase assay using pNPP as substrate; type: biochemical; conditions: pH 7.0
# T1 construct: purchased BIOMOL (Plymouth Meeting, P.A.)
# T1 sequence (P08575 599-1306 limits assumed): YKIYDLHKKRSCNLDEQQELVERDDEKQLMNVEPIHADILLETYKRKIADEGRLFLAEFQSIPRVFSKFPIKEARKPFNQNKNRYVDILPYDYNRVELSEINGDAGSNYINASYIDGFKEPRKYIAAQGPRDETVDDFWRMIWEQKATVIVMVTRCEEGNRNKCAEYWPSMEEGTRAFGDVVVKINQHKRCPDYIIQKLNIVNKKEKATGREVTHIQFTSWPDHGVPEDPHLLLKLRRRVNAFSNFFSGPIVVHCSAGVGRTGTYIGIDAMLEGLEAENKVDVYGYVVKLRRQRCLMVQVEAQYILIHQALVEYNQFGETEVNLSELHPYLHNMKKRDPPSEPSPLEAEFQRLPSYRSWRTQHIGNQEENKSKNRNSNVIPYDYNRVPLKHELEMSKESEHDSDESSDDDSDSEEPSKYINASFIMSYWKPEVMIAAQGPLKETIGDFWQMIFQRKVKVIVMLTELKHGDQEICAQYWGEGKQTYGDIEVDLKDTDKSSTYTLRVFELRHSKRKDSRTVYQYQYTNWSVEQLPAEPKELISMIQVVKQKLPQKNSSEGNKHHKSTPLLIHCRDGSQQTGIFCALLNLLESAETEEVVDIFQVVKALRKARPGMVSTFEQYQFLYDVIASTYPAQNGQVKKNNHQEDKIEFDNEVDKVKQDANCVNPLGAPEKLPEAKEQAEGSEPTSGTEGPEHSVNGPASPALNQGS
# Protocol: (§1) Potent inhibitors of CD45 have been discovered. Such inhibitors are useful for the treatment of various autoimmune disorders as well as for treatment of OGR. Inhibition of the phosphatase activity of CD45 by compounds of the present invention has been shown by incubating the cytosolic portion of CD45 with the compounds and p-nitrophenyl phosphate (pNPP), a phosphatase substrate. Spectrophotometric monitoring has shown that the liberation of p-nitrophenol from the substrate by CD45 is inhibited in the presence of the compounds disclosed herein. Inhibition of the phosphatase activity of CD45 by compounds of the present invention has also been shown using a p56^lckcarboxy-terminal phosphorylated peptide as a substrate.
# CD45 enzyme was obtained from BIOMOL (Plymouth Meeting, P.A.). Phosphatase activity was assayed in a buffer containing final concentrations of 25 mM imidazole at pH 7.0, 50 mM NaCl, 2.5 mM ethylenediaminetetraacetic acid (“EDTA”), 5 mM dithiothreitol (“DTT”) and 10 μg/mL bovine serum albumin (“BSA”) using pNPP as a substrate. […] Activity was measured by following the increase in absorbance at 405 nm using a SpectraMax Plus spectrophotometric plate reader (Molecular Devices, Sunnyvale, Calif.).
# CD45 [2] = target: T1, CD45; experiment: Phosphatase assay using lck 10-mer as substrate; type: biochemical; conditions: lck carboxy-terminal peptide TEGQpYQPQP substrate, read-out: Ick IC50
# Protocol: as §1
# Phosphatase activity was assayed in 96 well plates in a buffer containing final concentrations of 25 mM HEPES at pH 7.2, 5 mM DTT and 10 μg/mL BSA, using the lck carboxy-terminal peptide TEGQpYQPQP as the substrate (Cho, H., Krishnaraj, R., Itoh, M., Kitas, E., Bannwarth, W., Saito, H., Walsh, C. T. 1993. Substrate specificities of catalytic fragments of protein tyrosine phosphatases (HPTPb, LAR, and CD45) toward the phosphotyrosylpeptide substrates and thiophosphotyrosylated peptides as inhibitors. Protein Science 2:977-984). Compounds were tested in a range from 30 to 0.01 μM in a final concentration of 5% DMSO. Enzyme was incubated with substrate, with or without compound, at room temperature for 1.5 h. At the end of the incubation period, BIOMOL “Green Reagent” (BIOMOL, Plymouth Meeting, Pa.) was added to each well, the plates incubated at room temperature for 30 min and absorbance read at 620 nm.
# [3] = tested on: Peripheral blood mononuclear cells (T cells); experiment: T cell proliferation assay (anti-CD3 OKT3 activated PBMC, [3H]thymidine); type: cell-based; conditions: Homo sapiens; PBMC activated with OKT3 30 ng/mL; read-out: T cell prolif. IC50
# Protocol: Whole blood was obtained from healthy human blood donors. Peripheral blood mononuclear cells (“PBMC”) were isolated using Lymphoprep density-gradient centrifugation (Nycomed Amersham, Oslo, Norway), washed, counted and resuspended at 2×10^6 cells/mL in RPMI 1640 medium containing glutamine, 0.1 mg/mL gentamycin and 10% heat inactivated human serum. PBMC were transferred to 96-well plates (2×10^5 cells/well) containing compound or vehicle control, with the final concentration of DMSO not to exceed 0.3%, and incubated for 1 hour before addition of the activating anti-CD3 antibody, OKT3 (30 ng/mL). After 24 hours in culture, the cells were pulsed with [^3H]thymidine (1 μCi/well) overnight and harvested the next day onto 96-well Packard GF/C filter plates using a Packard Cell Harvester (Packard Instruments, Meriden, Conn.). The filter plate was dried, the bottom of the plate sealed, 25 μL of Microscint 20 scintillation fluid added to each well, the top of the plate sealed with TopSeal-A, and the plate counted on a Packard TopCount. The data from the TopCount is transferred into Excel 5 (Microsoft, Redmond, Wash.) and formatted for EC50 determination using Prism software (GraphPad Software, San Diego, Calif.).
# [4] = Cytotoxicity assay (Calcein-AM uptake); type: cell-based; conditions: human, PHA-expanded T-cell lymphoblasts derived from PBMC, overnight incubation, Calcein-AM viability
# Protocol: Calcein-AM (Molecular Probes, Eugene, Oreg.) uptake, as a quantitative measure of cell viability, was used to evaluate the toxic effect of compounds on T cells.
# The T-cell lymphoblasts were purified by separation over Lymphoprep, plated at 2×10 ^5/well in a round bottom 96-well plate containing RPMI with compound and incubated overnight at 37° C. in an incubator containing 5% CO2. The dilution scheme and culture media were the same as those used in the T-cell proliferation assay. After the incubation period, cells were washed with Dulbecco's phosphate- buffered saline (D-PBS) and incubated with 1 μM Calcein-AM for 30-45 min in D-PBS as described in the technical sheet provided with The LIVE/DEAD Viability/Cytotoxicity Kit from Molecular Probes.
Structure (SMILES),pIC50 (CD45 [1]),"pIC50 (CD45 [2]; pH 7.2, 1.5 h)",pIC50 [3],CC50 [4],"pIC50 (CD45 [2]; pH 7.2, […])"
"O=C1C(=O)c2ncccc2-c2ccccc21 [Example 1, benzo[f]quinoline-5,6-dione]",5.64,< 4.52,6.40,7000 nM,–
"O=C1C(=O)c2cccnc2-c2ccccc21 [Example 2, benzo[h]quinoline-5,6-dione]",6.00,–,6.62,2400 nM,5.51
"O=C1C(=O)c2ccoc2-c2ccccc21 [Example 3, naphtho[,1,2b]furan-4,5-dione]",5.96,–,–,3500 nM,5.35
"O=C1C(=O)c2ccsc2-c2ccccc21 [Example 4, naphtho[1,2-b]thiophene-4,5-dione]",5.82,< 4.52,–,3500 nM,–

# From US20030130298A1, “Cd45 inhibitors” (priority 1999, published 2003)
